{"source": "patent US7208572B2", "about": "“Leptin-related peptides” (Albany Medical College, priority 1998, dated 2007)", "key": {"[1]": {"test": "28-day ip study of body weight and food intake in female C57BL/6J ob/ob mice", "format": "in vivo, mouse", "details": "1 mg per day ip, 28 days", "excerpt": "In order to examine this possibility, six overlapping peptide amides, which corresponded to amino acid residues 106 to 167 of mouse leptin, were synthesized and their effects on body weight and food intake in female C57BL/6J ob/ob mice were subsequently assessed."}, "[2]": {"molecular_target": "T1, OB-Rb (Mus musculus, UniProt P48356)", "T1 construct": "full-length leptin receptor (OB-Rb), the receptor isoform predominantly expressed in the hypothalamus; expressed in transfected cells; host or cells: GT1-7", "T1 sequence (P48356 22-1162)": "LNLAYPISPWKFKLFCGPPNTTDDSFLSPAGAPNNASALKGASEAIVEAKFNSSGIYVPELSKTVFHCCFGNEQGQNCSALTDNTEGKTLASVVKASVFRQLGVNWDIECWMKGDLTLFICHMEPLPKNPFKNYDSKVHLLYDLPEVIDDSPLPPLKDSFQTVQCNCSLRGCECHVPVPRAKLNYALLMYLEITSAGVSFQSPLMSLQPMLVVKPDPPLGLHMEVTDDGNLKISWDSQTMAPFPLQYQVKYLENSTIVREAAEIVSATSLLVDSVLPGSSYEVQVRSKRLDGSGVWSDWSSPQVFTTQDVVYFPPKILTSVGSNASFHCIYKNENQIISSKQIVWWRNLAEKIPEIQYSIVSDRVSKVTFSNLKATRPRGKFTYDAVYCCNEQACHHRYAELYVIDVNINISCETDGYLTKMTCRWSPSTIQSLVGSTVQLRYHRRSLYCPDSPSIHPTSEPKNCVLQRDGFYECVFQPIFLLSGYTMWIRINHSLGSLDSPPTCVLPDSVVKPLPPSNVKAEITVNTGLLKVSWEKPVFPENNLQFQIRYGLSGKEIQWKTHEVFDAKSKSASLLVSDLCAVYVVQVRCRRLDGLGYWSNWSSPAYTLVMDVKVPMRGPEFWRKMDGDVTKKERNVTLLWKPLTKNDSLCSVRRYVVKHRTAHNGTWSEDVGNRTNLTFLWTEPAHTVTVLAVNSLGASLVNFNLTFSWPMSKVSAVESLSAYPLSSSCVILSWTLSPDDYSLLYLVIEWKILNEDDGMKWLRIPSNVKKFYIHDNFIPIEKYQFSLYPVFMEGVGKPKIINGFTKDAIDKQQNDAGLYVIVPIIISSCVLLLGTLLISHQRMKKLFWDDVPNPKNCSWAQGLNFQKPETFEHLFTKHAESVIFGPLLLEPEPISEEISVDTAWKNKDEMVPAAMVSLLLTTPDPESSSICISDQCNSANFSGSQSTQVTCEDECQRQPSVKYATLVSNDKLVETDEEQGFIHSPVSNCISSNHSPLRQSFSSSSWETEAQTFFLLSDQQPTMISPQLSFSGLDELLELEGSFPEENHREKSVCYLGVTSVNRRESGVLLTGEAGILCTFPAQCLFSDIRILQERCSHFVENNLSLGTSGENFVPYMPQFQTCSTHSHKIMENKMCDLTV", "test": "SEAP reporter gene signal transduction assay in GT1–7 cells cotransfected with HRRE-SEAP and OB-Rb", "format": "cell-based", "details": "peptide 1 to 250 uM, 24 h", "excerpt": "Initial experiments to determine the mechanism of action of LEP(116–130) utilized two highly sensitive in vitro bioassays routinely used to assess leptin binding and receptor activation (see e.g., White, et al., 1997. Proc. Natl. Acad. Sci. U.S.A. 94: 10657–10662). An alkaline phosphatase (“AP”)-leptin (“OB”) fusion protein (“AP-OB”) was used to measure inhibition of leptin binding in the absence or presence of recombinant mouse leptin (positive control) or peptide, by COS-7 cells transfected with the long (signaling) form of the mouse OB receptor (“OB-RL”). Signal transduction assays were done in GT1–7 cells cotransfected with AP reporter and OB-RL constructs. Secreted alkaline phosphatase (“SEAP”) activity in response to stimulation with mouse leptin or peptide was measured by chemiluminescence.\nTwo days after transfection, the cells were stimulated with mouse leptin or leptin-related synthetic peptides for 24 hours. Growth media were harvested and SEAP activity was determined by chemiluminescence as described for AP-OB binding studies.\nCOS-7 and GT1–7 cells were cultured in DMEM supplemented with 10% fetal bovine serum, and transfected by the lipofectamine method. […] Supernatants were collected and SEAP reporter activities were measured by chemiluminescence using the GreatEscApe alkaline phosphatase detection kit as described by the manufacturer (CLONTECH). […]"}, "[3]": {"test": "Epitope mapping: body weight and food intake in female C57BL/6J ob/ob mice, 7 daily ip injections", "format": "in vivo, mouse", "details": "1 mg/day ip, 7 days", "protocol": "Animal procedures. Feeding and weighing schedules, as well as peptide administration protocols, are as described in EXAMPLE 8, supra.\nStatistical analysis. Changes in body weight and differences in food intake between peptide-treated and vehicle-injected control mice were analyzed by analysis of variance (ANOVA) and considered significant when P<0.05.\nFemale ob/ob mice (n=6 per group) were given a single ip injection of 0.2 ml of vehicle (PBS, pH 7.2) or leptin-related synthetic peptide amide in 0.2 ml PBS for 7 consecutive days. Daily changes in body weight compared to pretreatment weights in both vehicle-injected control and peptide-treated mice are shown in FIG. 4. […] There was no evidence of weight loss in response to peptide treatment."}, "[4]": {"details": "db/db mice, 1 mg/day ip"}}, "note": "Read-outs that look alike come from different tables or passages of the source."}
{"sequence": "A L S R L Q G S L Q D I L Q Q (ALSRLQGSLQDILQQ) [LEP(146–160)]", "values": [{"measurement": "Weight gain and food intake vs vehicle", "setting": "[1]", "value": "continued to consume food and gain weight at a rate comparable to vehicle-injected control mice"}, {"measurement": "Stimulation of SEAP reporter activity", "setting": "[2]", "value": "incapable of inducing an increase in reporter gene activity"}, {"measurement": "Cumulative food intake", "setting": "[3]", "value": "40.5 ± 1.0", "unit": "gm/mouse"}, {"measurement": "Percent heavier (+) or lighter (−) than initial weight", "setting": "[3]", "value": "+28.0%"}, {"measurement": "Weight gain (+) or loss (−)", "setting": "[3]", "value": "+6.8 g"}, {"measurement": "Weight after 7 days", "setting": "[4]", "value": "36.2 ± 1.4", "unit": "g"}, {"measurement": "Cumulative food intake", "setting": "[4]; 7 days", "value": "53.5 ± 0.3", "unit": "gm/mouse"}, {"measurement": "Effect on body weight gain and food intake", "setting": "[4]; 7 days", "value": "had no effect on either body weight"}, {"measurement": "Percent increase (body weight)", "setting": "[4]; 7 days", "value": "+18.3%"}, {"measurement": "Weight increase", "setting": "[4]; 7 days", "value": "+5.6 g"}]}
